One assay has as its target T1, mTORC2 (Homo sapiens, UniProt P42345+P62942).
T1 construct: endogenous in cells; host or cells: PC3 cells (human prostate adenocarcinoma)
The assay is described as follows: Inhibition assay for mTORC2: phosphorylation of pAkt at Ser473, AlphaLISA SureFire in PC3 cells. Format: cell-based. The note with it: PC3 cells, 24 hours treatment, analogs substituted at C40 and C16 (C16 diastereomer mixtures not isolated), read-out: pIC50 mTORC2 (converted). The protocol: The IC50s of the inhibition of mTORC1 and mTORC2 were determined in vitro by determining the phosphorylation of pS6K at position Thr389 (mTORC1 inhibition) and pAkt at Ser473 (mTORC2 inhibition). In vitro studies were performed with AiphaLISA® technology using PC3 cells (Prostate Adenocarcinoma; Human (Homo sapiens)). The cells were seeded in 96 well plates and were treated for 24 hours with the different compounds. […] All analysis were performed using GraphPad Prism 7.0 (GraphPad Software, San Diego, USA). […]

The target in a further assay is T2, mTORC1 (Homo sapiens, UniProt P42345+P62942).
T2 construct: endogenous in cells; host or cells: PC3 cells (human prostate adenocarcinoma)
As to the kind of experiment: Inhibition assay for mTORC1: phosphorylation of pS6K at Thr389, AlphaLISA SureFire in PC3 cells. Format: cell-based. The note with it: PC3 cells, 24 hours treatment, pS6K Thr389; analogs substituted at C40 and C16 (C16 diastereomer mixtures not isolated); read-out: pIC50 mTORC1 (converted). The protocol: The IC50s of the inhibition of mTORC1 and mTORC2 were determined in vitro by determining the phosphorylation of pS6K at position Thr389 (mTORC1 inhibition) and pAkt at Ser473 (mTORC2 inhibition). In vitro studies were performed with AiphaLISA® technology using PC3 cells (Prostate Adenocarcinoma; Human (Homo sapiens)). The cells were seeded in 96 well plates and were treated for 24 hours with the different compounds. […] All analysis were performed using GraphPad Prism 7.0 (GraphPad Software, San Diego, USA).
Tables 5-7 include PIC50 values for mTORC1 of selected compounds; with compounds having an PIC50 for mTORC1 of >9.5 as A, 8.5 to 9.5 as B, and less than 8.5 as C.
(In general: Alpha assays give light when donor and acceptor beads are brought close together.)

Where only a bound is given, the exact number is not on record here.

For `CO[C@@H]1C[C@H](C[C@@H](C)[C@@H]2CC(=O)[C@H](C)/C=C(\C)[C@@H](O)[C@@H](OC)C(=O)[C@H](C)C[C@H](C)/C=C/C=C/C=C(\C)C(OCC(C)(C)O)C[C@@H]3CC[C@@H](C)[C@@](O)(O3)C(=O)C(=O)N3CCCCC3C(=O)O2)CC[C@H]1OCCO` (some centres unmarked) [Compound 91], the figures for the IC50 on mTORC2 and at mTORC1 were 1000 to 10000 nM and 0.316 to 3.16 nM, respectively.
The like results for `COCCOC1C[C@@H]2CC[C@@H](C)[C@@](O)(O2)C(=O)C(=O)N2CCCCC2C(=O)O[C@H]([C@H](C)C[C@@H]2CC[C@@H](OCCCO)[C@H](OC)C2)CC(=O)[C@H](C)/C=C(\C)[C@@H](O)[C@@H](OC)C(=O)[C@H](C)C[C@H](C)/C=C/C=C/C=C/1C` (some centres unmarked) [Compound 28] were, in that order, 1000 to 10000 nM and less than 0.316 nM.
The like results for `COCCCCOC1C[C@@H]2CC[C@@H](C)[C@@](O)(O2)C(=O)C(=O)N2CCCCC2C(=O)O[C@H]([C@H](C)C[C@@H]2CC[C@@H](OCCCO)[C@H](OC)C2)CC(=O)[C@H](C)/C=C(\C)[C@@H](O)[C@@H](OC)C(=O)[C@H](C)C[C@H](C)/C=C/C=C/C=C/1C` (stereo partly drawn) [Compound 70, (1R,9S,12S,15R,16E,18R,19R,21R,23S,24E,26E,28E,32S,35R)-1,18-dihydroxy-12-[(1R)-2-[(1S,3R,4R)-4-(3-hydroxypropoxy)-3-methoxy-cyclohexyl]-1-methyl-ethyl]-19-methoxy-30-(4-methoxybutoxy)-15,17,21,23,29,35-hexamethyl-11,36-dioxa-4-azatricyclo[30.3.1.0^4,9]hexatriaconta-16,24,26,28-tetraene-2,3,10,14,20-pentone] were, in that order, 1000 to 10000 nM and less than 0.316 nM.
For the molecule `CO[C@@H]1C[C@H](C[C@@H](C)[C@@H]2CC(=O)[C@H](C)/C=C(\C)[C@@H](O)[C@@H](OC)C(=O)[C@H](C)C[C@H](C)/C=C/C=C/C=C(\C)C(OCc3ccccc3)C[C@@H]3CC[C@@H](C)[C@@](O)(O3)C(=O)C(=O)N3CCCCC3C(=O)O2)CC[C@H]1OC(=O)NCCN1CCOCC1` (some centres unmarked) [Compound 115], the IC50 is less than 1000 nM at mTORC2 and less than 0.316 nM at mTORC1.
With `CO[C@@H]1C[C@H](C[C@@H](C)[C@@H]2CC(=O)[C@H](C)/C=C(\C)[C@@H](O)[C@@H](OC)C(=O)[C@H](C)C[C@H](C)/C=C/C=C/C=C(\C)C(OCCc3ccccc3)C[C@@H]3CC[C@@H](C)[C@@](O)(O3)C(=O)C(=O)N3CCCCC3C(=O)O2)CC[C@H]1OC(=O)NCCN1CCCCC1` (some centres unmarked) [Compound 113], the IC50 at mTORC2 is less than 1000 nM; on mTORC1 it was less than 0.316 nM.
The like results for `CO[C@@H]1C[C@H](C[C@@H](C)[C@@H]2CC(=O)[C@H](C)/C=C(\C)[C@@H](O)[C@@H](OC)C(=O)[C@H](C)C[C@H](C)/C=C/C=C/C=C(\C)C(OCCO)C[C@@H]3CC[C@@H](C)[C@@](O)(O3)C(=O)C(=O)N3CCCCC3C(=O)O2)CC[C@H]1OC(=O)NCCN1CCN(C)CC1` (some centres unmarked) [Compound 76] were, in that order, greater than 10000 nM and 0.316 to 3.16 nM.
The like results for `COCCOC1C[C@@H]2CC[C@@H](C)[C@@](O)(O2)C(=O)C(=O)N2CCCCC2C(=O)O[C@H]([C@H](C)C[C@@H]2CC[C@@H](OCCCN3CCC(O)CC3)[C@H](OC)C2)CC(=O)[C@H](C)/C=C(\C)[C@@H](O)[C@@H](OC)C(=O)[C@H](C)C[C@H](C)/C=C/C=C/C=C/1C` (some centres unmarked) [Compound 85] were, in that order, 1000 to 10000 nM and 0.316 to 3.16 nM.
For `COCCOC1C[C@@H]2CC[C@@H](C)[C@@](O)(O2)C(=O)C(=O)N2CCCCC2C(=O)O[C@H]([C@H](C)C[C@@H]2CC[C@@H](OCCN3CCN(C)CC3)[C@H](OC)C2)CC(=O)[C@H](C)/C=C(\C)[C@@H](O)[C@@H](OC)C(=O)[C@H](C)C[C@H](C)/C=C/C=C/C=C/1C` (some centres unmarked) [Compound 47] the same measures were 1000 to 10000 nM and less than 0.316 nM.
Regarding `CO[C@@H]1C[C@H](C[C@@H](C)[C@@H]2CC(=O)[C@H](C)/C=C(\C)[C@@H](O)[C@@H](OC)C(=O)[C@H](C)C[C@H](C)/C=C/C=C/C=C(\C)C(OCCC3CCOCC3)C[C@@H]3CC[C@@H](C)[C@@](O)(O3)C(=O)C(=O)N3CCCCC3C(=O)O2)CC[C@H]1OCCCO` (some centres unmarked) [Compound 106], the figures for the IC50 at mTORC2 and at mTORC1 were 1000 to 10000 nM and 0.316 to 3.16 nM, respectively.
For `COCCOC1C[C@@H]2CC[C@@H](C)[C@@](O)(O2)C(=O)C(=O)N2CCCCC2C(=O)O[C@H]([C@H](C)C[C@@H]2CC[C@@H](OCCN3C[C@@H](C)O[C@@H](C)C3)[C@H](OC)C2)CC(=O)[C@H](C)/C=C(\C)[C@@H](O)[C@@H](OC)C(=O)[C@H](C)C[C@H](C)/C=C/C=C/C=C/1C` (some centres unmarked) [Compound 81] the same measures were 1000 to 10000 nM and 0.316 to 3.16 nM.
For `CO[C@@H]1C[C@H](C[C@@H](C)[C@@H]2CC(=O)[C@H](C)/C=C(\C)[C@@H](O)[C@@H](OC)C(=O)[C@H](C)C[C@H](C)/C=C/C=C/C=C(\C)C(OCCO)C[C@@H]3CC[C@@H](C)[C@@](O)(O3)C(=O)C(=O)N3CCCCC3C(=O)O2)CC[C@H]1OCCCCN1CCOCC1` (some centres unmarked) [Compound 50] the same measures were 1000 to 10000 nM and less than 0.316 nM.
`CO[C@@H]1C[C@H](C[C@@H](C)[C@@H]2CC(=O)[C@H](C)/C=C(\C)[C@@H](O)[C@@H](OC)C(=O)[C@H](C)C[C@H](C)/C=C/C=C/C=C(\C)C(OCCc3ccccc3)C[C@@H]3CC[C@@H](C)[C@@](O)(O3)C(=O)C(=O)N3CCCCC3C(=O)O2)CC[C@H]1OC(=O)NCCn1cnnn1` (some centres unmarked) [Compound 114]: the IC50 was less than 1000 nM at mTORC2 and less than 0.316 nM at mTORC1.
For `COCCOC1C[C@@H]2CC[C@@H](C)[C@@](O)(O2)C(=O)C(=O)N2CCCCC2C(=O)O[C@H]([C@H](C)C[C@@H]2CC[C@@H](OC(=O)NCCN3CCOCC3)[C@H](OC)C2)CC(=O)[C@H](C)/C=C(\C)[C@@H](O)[C@@H](OC)C(=O)[C@H](C)C[C@H](C)/C=C/C=C/C=C/1C` (some centres unmarked) [Compound 30] the same measures were 1000 to 10000 nM and less than 0.316 nM.
The like results for `CO[C@@H]1C[C@H](C[C@@H](C)[C@@H]2CC(=O)[C@H](C)/C=C(\C)[C@@H](O)[C@@H](OC)C(=O)[C@H](C)C[C@H](C)/C=C/C=C/C=C(\C)C(OC(C)C)C[C@@H]3CC[C@@H](C)[C@@](O)(O3)C(=O)C(=O)N3CCCCC3C(=O)O2)CC[C@H]1OC(=O)NCCc1ccccc1` (some centres unmarked) [Compound 80] were, in that order, greater than 10000 nM and 0.316 to 3.16 nM.
With `CO[C@@H]1C[C@H](C[C@@H](C)[C@@H]2CC(=O)[C@H](C)/C=C(\C)[C@@H](O)[C@@H](OC)C(=O)[C@H](C)C[C@H](C)/C=C/C=C/C=C(\C)C(OCCOCCO)C[C@@H]3CC[C@@H](C)[C@@](O)(O3)C(=O)C(=O)N3CCCCC3C(=O)O2)CC[C@H]1OCCO` (some centres unmarked) [Compound 69], the IC50 was greater than 10000 nM at mTORC2 and 0.316 to 3.16 nM at mTORC1.
For `CO[C@@H]1C[C@H](C[C@@H](C)[C@@H]2CC(=O)[C@H](C)/C=C(\C)[C@@H](O)[C@@H](OC)C(=O)[C@H](C)C[C@H](C)/C=C/C=C/C=C(\C)C(OCCc3ccccc3)C[C@@H]3CC[C@@H](C)[C@@](O)(O3)C(=O)C(=O)N3CCCCC3C(=O)O2)CC[C@H]1OC(=O)N(CCO)CCO` (stereo partly drawn) [Compound 112, [(1R,2R,4S)-4-[(2R)-2-[(1R,9S,12S,15R,16E,18R,19R,21R,23S,24E,26E,28E,32S,35R)-1,18-dihydroxy-19-methoxy-15,17,21,23,29,35-hexamethyl-2,3,10,14,20-pentaoxo-30-(2-phenylethoxy)-11,36-dioxa-4-azatricyclo[30.3.1.0^4,9]hexatriaconta-16,24,26,28-tetraen-12-yl]propyl]-2-methoxy-cyclohexyl] N,N-bis(2-hydroxyethyl)carbamate] the same measures were less than 1000 nM and less than 0.316 nM.

The record behind these values is US12565505B2, “mTORC modulators and uses thereof” (Aeovian Pharmaceuticals, Inc., priority 2019, dated 2026).
